Assay [1] relates to antennae of male C. buqueti adults. Kind of assay: EAG assays after RNAi of CbuqPBP2. Format: in vivo, Cyrtotrachelus buqueti. Conditions: 72 h after dsRNA injection; chemical at 100 μg/μL in n-hexane. On the procedure:
To evaluate the function of CbuqPBP2 in C. buqueti olfaction, the dsRNA-injected, RNase-free water-injected, or non-injected male adults were subjected to EAG (Syntech, Hilversum, Netherlands) at 72 h after injection. Based on the results of the fluorescence competition binding assay, the chemicals (dibutyl phthalate, ethyl hexanoate, styrene and linalool) that bound with CbuqPBP2 were selected for electrophysiological experiments. The tested chemicals were diluted in n-hexane to prepare a solution at a concentration of 100 μg/μL, and n-hexane was used as a blank control.
The antenna for EAG detection was cut off and amputated at the base and tip. The basal and distal ends of the excised antenna were linked to a reference electrode and recording electrode by one teardrop of Spectra R360 electrically conductive gel, respectively. A filter paper strip (2 cm × 0.5 cm) loaded with ten microliters of each chemical solution was inserted into the sample tube (10 cm in length) as a stimuli source. An air-stimulus controller (CS-05 model) was used to deliver the stimulus. The stimulation time was 0.5 s, and the interval for antennal recovery was 30 s. The response of the antenna to each chemical was detected using a high-impedance amplifier (IDAC2) and analyzed using the EAG software (version 2.0) supplied with the instrument. The chemicals were tested randomly for each antenna. The antenna was stimulated one time with n-hexane before and after each chemical stimulation. Three to six antennae were measured for each chemical in independent experiments, and each antenna was tested three times. EAG responses were recorded in mV, and the relative EAG response of each chemical was calculated by using the following formula: Relative EAG response=EAGA/EAGCK1+EAGCK2/2 where EAG(A) represents the EAG response to the chemical; EAGCK1 and EAKCK2 represent EAG responses to n-hexane before and after each chemical stimulation, respectively.

For assay [2], the system named is CbuqPBP1. More on the design: method as in doi:10.1111/phen.12209. The note with it: cited from earlier work.
For assay [3], the system named is virgin males of C. buqueti. Set-up: method as in earlier work. Conditions: compared with mated males and virgin females; cited from earlier work.
The target of assay [4] is CbuqPBP2 (Cyrtotrachelus buqueti, UniProt A0A1L3KPR5). Kind of assay: Fluorescence competitive binding assay with 1-NPN probe. Conditions: increasing ligand concentration, Figure 4C,D. The protocol:
The fluorescent probe 1-NPN and the tested chemicals with a purity of at least more than 96% were purchased from Aladdin Biochemical Technology Co., LTD. (Shanghai, China). The fluorescence binding assay was carried out on a Lumina fluorescence spectrophotometer (Thermo Fisher Scientific, MA, USA) using a 1 cm light path quartz cuvette at 25 °C. All the slit widths for both excitation and emission were 5 nm. The 1-NPN and all the compounds tested were dissolved in chromatography-grade methanol to a final concentration of 1 mM. The CbuqPBP2 protein was dissolved in 50 mM Tris–HCl buffer at pH 7.4 to a final concentration of 2 μM. […] The scanning range was 350–550 nm at each concentration, and the maximum fluorescence intensities were plotted against the free ligand concentration.

“Also recorded” adds a separate entry of the source.

CbuqPBP2, sequence (A0A1L3KPR5 entry or part of it): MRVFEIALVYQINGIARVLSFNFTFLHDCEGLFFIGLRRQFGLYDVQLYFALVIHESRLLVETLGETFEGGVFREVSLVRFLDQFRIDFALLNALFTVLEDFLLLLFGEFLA

Take `CCCCOC(=O)c1ccccc1C(=O)OCCCC` [Dibutyl phthalate]: the “EAG response of dsCbuqPBP2-treated male adults versus water-injected and non-injected controls” value in assay [1] is given as “significantly reduced”. Also, in assay [2], the “binding affinity of CbuqPBP1” value is “strongest binding affinity”. In addition, the attraction effect entry in assay [3] was “more significant attraction effect”.
Regarding `CCCCCC(=O)OCC` [Ethyl hexanoate], the “EAG response of dsCbuqPBP2-treated male adults versus water-injected and non-injected controls” value in assay [1] was “did not significantly decrease”.
Regarding `c1ccc2[nH]ccc2c1` [Indole], in assay [4], the “fluorescence intensity in competitive binding curve” value is given as “the fluorescence intensity enhanced as the ligand concentration increased”.
Take `C=CC(C)(O)CCC=C(C)C` (stereo not drawn) [Linalool]: the “EAG response of dsCbuqPBP2-treated male adults versus water-injected and non-injected controls” value in assay [1] is “not significantly reduced; also recorded: did not influence the EAG response”.
Regarding `CC(C)=CCC/C(C)=C/CC/C(C)=C/CC/C=C(\C)CC/C=C(\C)CCC=C(C)C` [Squalene], in assay [4], the “fluorescence intensity in competitive binding curve” value is recorded as “the fluorescence intensity enhanced as the ligand concentration increased”.
For the compound `C=Cc1ccccc1` [Styrene], in assay [1], the “EAG response of dsCbuqPBP2-treated male adults versus water-injected and non-injected controls” value was “significantly reduced”. Moreover, the “binding affinity of CbuqPBP1” value in assay [2] is on record as “lower binding affinity”.

(Values after article PMC10706763, “Molecular and Functional Characterization of Pheromone Binding Protein 2 from Cyrtotrachelus buqueti (Coleoptera: Curculionidae)” (International Journal of Molecular Sciences, 2023).)
